Laboratory results: US20260184707A1, “PHARMACEUTICAL COMPOUNDS FOR THE TREATMENT OF COMPLEMENT MEDIATED DISORDERS” (ALEXION PHARMACEUTICALS, INC., priority 2022, published 2026)

Biological target: T1, Human complement C1s enzyme (Homo sapiens, UniProt P09871)
T1 construct: purified from human serum, Complement Technology, Inc; purchased Complement Technology, Inc; host or cells: human serum (plasma-derived native protein)
T1 sequence (P09871 438-688 limits assumed): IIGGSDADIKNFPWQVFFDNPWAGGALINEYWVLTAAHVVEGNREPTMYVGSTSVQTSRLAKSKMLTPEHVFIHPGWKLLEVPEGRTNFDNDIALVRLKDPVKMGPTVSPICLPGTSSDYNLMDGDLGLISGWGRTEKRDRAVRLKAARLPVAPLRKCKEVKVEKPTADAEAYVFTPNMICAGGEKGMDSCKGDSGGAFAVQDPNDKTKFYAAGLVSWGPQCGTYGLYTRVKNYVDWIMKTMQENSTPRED
T1 sequence (P09871 16-437 partner limits assumed): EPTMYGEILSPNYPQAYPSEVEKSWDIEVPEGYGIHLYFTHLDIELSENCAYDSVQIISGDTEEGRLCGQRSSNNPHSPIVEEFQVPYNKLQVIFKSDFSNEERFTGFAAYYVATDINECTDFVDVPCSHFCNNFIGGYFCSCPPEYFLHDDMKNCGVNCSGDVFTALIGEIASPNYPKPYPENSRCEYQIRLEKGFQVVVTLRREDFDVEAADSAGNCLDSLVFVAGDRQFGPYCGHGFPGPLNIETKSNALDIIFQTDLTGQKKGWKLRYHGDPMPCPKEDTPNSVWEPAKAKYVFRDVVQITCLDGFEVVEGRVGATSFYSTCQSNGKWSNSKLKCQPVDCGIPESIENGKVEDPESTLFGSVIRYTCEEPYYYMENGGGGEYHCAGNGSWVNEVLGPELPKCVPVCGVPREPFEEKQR
Test: Human C1s enzyme assay
Type: biochemical
Settings: human complement C1s enzyme 1.16 nM, substrate Z-L-Lys-SBzl, A405; read-out: IC50 (Stars)
Outline: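 Thioesterase activity followed colorimetrically (DTNB, A405, 30-s reads) using 100 μM Z-L-Lys-SBzl substrate. Enzyme, human serum-derived C1s at 1.16 nM final, was incubated with test compound for 5 min, room temperature, pH 7.5 Tris buffer with 1 M NaCl. Rate-versus-concentration data fitted by nonlinear regression for IC50.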

SMILES	IC50 [nM]
COc1ccccc1-c1ccc(CNc2cnc(-c3ccccc3)n(CC(=O)NCc3cc4cnccc4[nH]3)c2=O)cc1 [Compound 257, N-((1H-pyrrolo[3,2-c]pyridin-2-yl)methyl)-2-(5-(((2′-meth-oxy-[1,1′-biphenyl]-4-yl)meth-yl)amino)-6-oxo-2-phenylpyr-imidin-1(6H)-yl)acetamide]	< 100
O=C(Cn1c(-c2ccccc2)ncc(NCc2ccc(-c3ccccc3)s2)c1=O)NCc1cc2cnccc2[nH]1 [Compound 258, N-((1H-pyrrolo[3,2-c]pyridine-2-yl)methyl)-2-(6-oxo-2-phenyl-5-(((5-phenylthiophen-2-yl)methyl)amino)pyrimidin-1(6H)-yl)acetamide]	< 100
O=C(Cn1c(-c2ccccc2)ncc(NCc2ccc3sc4ccccc4c3c2)c1=O)NCc1cc2cnccc2[nH]1 [Compound 259, N-((1H-pyrrolo[3,2-c]pyridin-2-yl)methyl)-2-(5-((dibenzo [b,d]thiophen-2-ylmethyl)-amino)-6-oxo-2-phenylpyrimi-din-1(6H)-yl)acetamide]	< 100
O=C(Cn1c(N2CCOCC2)ncc(NCc2ccc3oc4ccccc4c3c2)c1=O)NCc1cc2cnccc2[nH]1 [Compound 260, N-((1H-pyrrolo[3,2-c]pyridin-2-yl)methyl)-2-(5-((dibenzo [b,d]furan-2-ylmethyl)amino)-2-morpholino-6-oxopyrimidin-1(6H)-yl)acetamide]	< 100
O=C(Cn1c(N2CCCCC2)ncc(NCc2ccc3oc4ccccc4c3c2)c1=O)NCc1cc2cnccc2[nH]1 [Compound 261, N-((1H-pyrrolo[3,2-c]pyridin-2-yl)methyl)-2-(5-((dibenzo [b,d]furan-2-ylmethyl)amino)-6-oxo-2-(piperidin-1-yl)pyrimi-din-1(6H)-yl)acetamide]	< 100
CO[C@@H]1CO[C@H]2[C@@H]1OC[C@H]2Oc1ccc(-c2ncc(NC(=O)c3cnc(-c4ccccc4)s3)c(=O)n2CC(=O)NCc2cc3cnccc3[nH]2)cc1 [Compound 262, N-(1-(2-(((1H-pyrrolo[3,2-c]pyridine-2-yl)methyl)amino)-2-oxoethyl)-2-(4-(((3R,3aR,6R,6aR)-6-methoxyhexahydrofuro[3,2-b]furan-3-yl)oxy)phenyl)-6-oxo-1,6-dihydropyrimidin-5-yl)-2-phenylthiazole-5-carboxamide]	< 100
O=C(Cn1c(-c2ccc(O[C@@H]3CO[C@H]4[C@@H]3OC[C@H]4O)cc2)ncc(NC(=O)c2cnc(-c3ccccc3)s2)c1=O)NCc1cc2cnccc2[nH]1 [Compound 263, N-(1-(2-(((1H-pyrrolo[3,2-c]pyridine-2-yl)methyl)amino)-2-oxoethyl)-2-(4-(((3R,3aR,6R,6aR)-6-hydroxyhexahydrofuro[3,2-b]furan-3-yl)oxy)phenyl)-6-oxo-1,6-dihydropyrimidin-5-yl)-2-phenylthiazole-5-carboxamide]	< 100
O=C(Cn1c(-c2ccc(O[C@@H]3CO[C@H]4[C@@H]3OC[C@H]4O)cc2)ncc(NC(=O)c2ccc(-c3ccccc3)s2)c1=O)NCc1cc2cnccc2[nH]1 [Compound 264, N-(1-(2-(((1H-pyrrolo[3,2-c]pyridin-2-yl)methyl)amino)-2-oxoethyl)-2-(4-(((3R,3aR,6R, 6aR)-6-hydroxyhexahydrofuro [3,2-b]furan-3-yl)oxy)phenyl)-6-oxo-1,6-dihydropyrimidin-5-yl)-5-phenylthiophene-2-carboxamide]	< 100
C[C@H](Nc1cncn(CC(=O)NCc2cc3cnccc3[nH]2)c1=O)c1ccc2oc3ccccc3c2c1 [Compound 265, (S)—N-((1H-pyrrolo[3,2-c]pyridine-2-yl)methyl)-2-(5-((1-(dibenzo[b,d]furan-2-yl)ethyl)amino)-6-oxopyrimidin-1(6H)-yl)acetamide]	< 100
O=C(NCCOc1nc(-c2ccccc2)ncc1NCc1ccc2oc3ccccc3c2c1)c1cc2cnccc2[nH]1 [Compound 266, N-(2-((5-((dibenzo[b,d]furan-2-ylmethyl)amino)-2-phenyl-pyrimidin-4-yl)oxy)ethyl)-1H-pyrrolo[3,2-c]pyridine-2-carboxamide]	> 1000
O=C(NCCn1c(-c2ccccc2)ncc(NCc2ccc3oc4ccccc4c3c2)c1=O)c1cc2cnccc2[nH]1 [Compound 267, N-(2-(5-((dibenzo[b,d]furan-2-ylmethyl)amino)-6-oxo-2-phenylpyrimidin-1(6H)-yl)-ethyl)-1H-pyrrolo[3,2-c]pyr-idine-2-carboxamide]	> 1000
O=C(COc1cc(C(=O)NCc2ccc3oc4ccccc4c3c2)nc(-c2ccccc2)n1)NCc1cc2cnccc2[nH]1 [Compound 268, 6-(2-(((1H-pyrrolo[3,2-c]pyridine-2-yl)methyl)amino)-2-oxoethoxy)-N-(dibenzo[b,d]furan-2-ylmethyl)-2-phenylpyrimidine-4-carboxamide]	> 1000
Cc1nc(-c2ccccc2)nc(OCC(=O)NCc2cc3cnccc3[nH]2)c1NCc1ccc2oc3ccccc3c2c1 [Compound 269, N-((1H-pyrrolo[3,2-c]pyridine-2-yl)methyl)-2-((5-((dibenzo[b,d]furan-2-ylmethyl)amino)-6-methyl-2-phenylpyrimidin-4-yl)oxy)acetamide]	> 1000
O=C(Cn1c(N2CC(F)C2)ncc(NCc2ccc3oc4ccccc4c3c2)c1=O)NCc1cc2cnccc2[nH]1 [Compound 270, 2-[5-(dibenzofuran-2-ylmethylamino)-2-(3-fluoroazetidin-1-yl)-6-oxo-pyrimidin-1-yl]-N-(1H-pyrrolo[3,2-c]pyridine-2-ylmethyl)acetamide]	< 100
O=C(Cn1c(N2CCC(F)(F)C2)ncc(NCc2ccc3oc4ccccc4c3c2)c1=O)NCc1c[nH]c2ccncc12 [Compound 271, N-((1H-pyrrolo[3,2-c]pyridin-3-yl)methyl)-2-(5-((dibenzo [b,d]furan-2-ylmethyl)amino)-2-(3,3-difluoropyrrolidin-1-yl)-6-oxopyrimidin-1(6H)-yl)acet-amide]	< 100
C[C@H](Nc1cnc(C2=CCCCC2)n(CC(=O)NCc2cc3cnccc3[nH]2)c1=O)c1ccc2oc3ccccc3c2c1 [Compound 272, (S)-N-((1H-pyrrolo[3,2-c]pyr-idin-2-yl)methyl)-2-(2-(cyclo-hex-1-en-1-yl)-5-((1-(dibenzo [b,d]furan-2-yl)ethyl)amino)-6-oxopyrimidin-1(6H)-yl)acet-amide]	< 100
C[C@H](Nc1cnc(-c2ccco2)n(CC(=O)NCc2cc3cnccc3[nH]2)c1=O)c1ccc2oc3ccccc3c2c1 [Compound 273, (S)-N-((1H-pyrrolo[3,2-c]pyr-idin-2-yl)methyl)-2-(5-((1-(dibenzo[b,d]furan-2-yl)ethyl)-amino)-2-(furan-2-yl)-6-oxo-pyrimidin-1(6H)-yl)acetamide]	< 100
C[C@H](Nc1cnc(-c2cccnc2)n(CC(=O)NCc2cc3cnccc3[nH]2)c1=O)c1ccc2oc3ccccc3c2c1 [Compound 274, (S)-N-((1H-pyrrolo[3,2-c]pyr-idin-2-yl)methyl)-2-(5-((1-(dibenzo[b,d]furan-2-yl)ethyl)-amino)-6-oxo-2-(pyridin-3-yl)-pyrimidin-1(6H)-yl)acetamide]	< 100
C[C@@H](Nc1cnc(-c2ccccc2)n(CC(=O)NCc2cc3cnccc3[nH]2)c1=O)c1ccc(-c2ccccc2)cc1 [Compound 275, (R)-N-((1H-pyrrolo[3,2-c]pyr-idin-2-yl)methyl)-2-(5-((1-([1,1′-biphenyl]-4-yl)ethyl)-amino)-6-oxo-2-phenylpyrimi-din-1(6H)-yl)acetamide]	< 100
C[C@H](Nc1cnc(-c2ccccc2)n(CC(=O)NCc2cc3cnccc3[nH]2)c1=O)c1ccc(-c2ccccc2)cc1 [Compound 276, (S)-N-((1H-pyrrolo[3,2-c]pyr-idin-2-yl)methyl)-2-(5-((1-([1,1′-biphenyl]-4-yl)ethyl)-amino)-6-oxo-2-phenylpyrimi-din-1(6H)-yl)acetamide]	< 100
C[C@H](Nc1cnc(C2CCCC2)n(CC(=O)NCc2cc3cnccc3[nH]2)c1=O)c1ccc2oc3ccccc3c2c1 [Compound 277, (S)-N-((1H-pyrrolo[3,2-c]pyr-idin-2-yl)methyl)-2-(2-cyclo-pentyl-5-((1-(dibenzo[b,d]furan-2-yl)ethyl)amino)-6-oxo-pyrimidin-1(6H)-yl)acetamide]	< 100
O=C(Cn1c(-c2ccccc2)ncc(NC(=O)c2ccc(-c3ccccc3)s2)c1=O)NCc1ccc(Cl)s1 [Compound 278, N-(1-(2-(((5-chlorothiophen-2-yl)methyl)amino)-2-oxoethyl)-6-oxo-2-phenyl-1,6-dihydro-pyrimidin-5-yl)-5-phenylthio-phene-2-carboxamide]	> 1000
O=C(Cn1c(-c2ccc(N3CCOCC3)nc2)ncc(NCc2ccc3oc4ccccc4c3c2)c1=O)NCc1cc2cnccc2[nH]1 [Compound 279, N-((1H-pyrrolo[3,2-c]pyridin-2-yl)methyl)-2-(5-((dibenzo [b,d]furan-2-ylmethyl)amino)-2-(6-morpholinopyridin-3-yl)-6-oxopyrimidin-1(6H)-yl)-acetamide]	< 100
